Experimental data reported in patent US20190142864A1, “METHODS AND SYSTEMS, FOR INTERFERING WITH VIABILITY OF BACTERIA AND RELATED ANTIMICROBIALS AND COMPOSITIONS” (CALIFORNIA INSTITUTE OF TECHNOLOGY, priority 2017, published 2019).
Entries after “also recorded” stand apart in the source; their conditions may differ.

Assays:
[1] = test system: P. aeruginosa cultures; assay: Bacterial-survival endpoint assay, viable-cell plate counts after 4 hr; type: cell-based, Pseudomonas aeruginosa; details: for lethality (viable-cell plate counts): anoxic conditions with 400 μM nitrate; for lethality (viable-cell plate counts) / sensitivity of cultures (viable-cell plate counts): 40 μg/ml tobramycin, 10 mM chlorate
Method: In aerobic-survival endpoint assays, overnight aerobic cultures were pelleted, washed twice with and resuspended in LB, and added to a 96-well microtiter plate at high cell density (optical density at 500 nm [OD500]˜3). Wells also contained sodium chlorate (final concentration, 10 mM), sodium chlorite (final concentration, 10 mM), tobramycin (final concentration, 40 μg ml^−1), or an equal volume (20 μl) of dH2O in untreated-control wells (200-μl total volume per well). Ninety-six-well plates were incubated at 37° C. with shaking at 250 rpm for 4 hr before viable cells on plates were counted. Anaerobic-survival endpoint assays were performed as described above, except […], […], and 96-well plates were incubated anaerobically at 33° C. for 4 hr and then removed from the glove box so that cultures could be serially diluted for viable-cell plate counts.
(§1) Viable-cell plate counts were performed by serially diluting samples in phosphate-buffered saline (PBS). Dilutions spanning 7 orders of magnitude were plated on LB agar plates as 10-μl drips. Plates were incubated at 37° C. for ˜20 h, and incubation continued at room temperature (72 hr of total incubation) to allow for the growth of slow-growing colonies. Colonies were counted daily, and numbers of CFU per milliliter were calculated at the end of the incubation period. All viable-cell plate counting was carried out under aerobic conditions.
High-density P. aeruginosa cultures (˜10^9CFU ml^−1) were incubated with and without drugs under oxic conditions, […], or anoxic conditions without nitrate (no terminal electron acceptor) for 4 h, after which viability was determined (FIG. 1).

[2] = test system: P. aeruginosa cultures; assay: 72 hr survival assay with viable-cell counts and chlorate quantification; type: cell-based, Pseudomonas aeruginosa; details: 1 mM chlorate
Method: as §1

[3] = test system: P. aeruginosa ΔlasR mutant; assay: 72 hr anoxic survival assay with viable-cell counts and chlorate quantification, ΔlasR; type: cell-based, Pseudomonas aeruginosa; details: anoxic conditions, 1 mM chlorate
Method: as §1

[4] = test system: P. aeruginosa narG transposon mutant; assay: Anaerobic adaptation and survival, narG mutant; type: cell-based, Pseudomonas aeruginosa; details: 1 mM chlorate, 72 hr anoxic
Method: Overnight cultures were grown aerobically in LB with 40 mM KNO3, 100 mM L-arabinose, 50 μg ml^−1 gentamicin (for strains containing pMQ72-derived plasmids), and 50 μg ml^−1 kanamycin (for transposon insertion strains). Overnight cultures were pelleted, washed twice in LB with 100 mM L-arabinose to remove antibiotics, and resuspended in LB with 100 mM L-arabinose with or without 1 mM sodium chlorate at high cell density (OD500˜3). Two hundred microliters of resuspended culture was added to 96-well microtiter plates, and the plates were moved to the anaerobic glove box for cells to adapt to the anaerobic lifestyle. After a 72-hr incubation at 33° C., 96-well plates were removed from the anaerobic glove box and viable cells on plates were counted to calculate numbers of CFU per milliliter (described above). Percent survival was calculated for each strain by dividing CFU-permilliliter values from cultures containing chlorate by the average CFU-per-milliliter value from control cultures lacking chlorate and multiplying by 100. CFU-per-milliliter values of untreated control cultures were similar across strains, ranging from 1.0×10^9 to 2.2×10^9. The percentage of chlorate remaining after the 72-hr incubation was determined for each strain by dividing the final chlorate concentration in each culture by the initial chlorate concentration in the medium and multiplying by 100. […]

[5] = test system: P. aeruginosa ΔlasR ΔnarGHJI strain; assay: Anaerobic adaptation and survival, ΔlasR ΔnarGHJI; type: cell-based, Pseudomonas aeruginosa; details: 1 mM chlorate, 72 hr anoxic
Method: The narGHJI genes were deleted in WT PA14 and the isogenic ΔlasR background. The region upstream of narG was amplified using primers 5′-[…]-3′ (SEQ ID NO: 11) and 5′-[…]-3′ (SEQ ID NO: 12), and the region downstream of narI was amplified using primers 5′-[…]-3′ (SEQ ID NO: 13) and 5′-[…]-3′ (SEQ ID NO: 14). These fragments were cloned into HindIII- and SacI-digested pMQ30 (89) via Gibson cloning. […]
Overnight cultures were grown aerobically in LB with 40 mM KNO3, 100 mM L-arabinose, 50 μg ml^−1 gentamicin (for strains containing pMQ72-derived plasmids), and 50 μg ml^−1 kanamycin (for transposon insertion strains). […] After a 72-hr incubation at 33° C., 96-well plates were removed from the anaerobic glove box and viable cells on plates were counted to calculate numbers of CFU per milliliter (described above). Percent survival was calculated for each strain by dividing CFU-permilliliter values from cultures containing chlorate by the average CFU-per-milliliter value from control cultures lacking chlorate and multiplying by 100. […] The percentage of chlorate remaining after the 72-hr incubation was determined for each strain by dividing the final chlorate concentration in each culture by the initial chlorate concentration in the medium and multiplying by 100.

[6] = test system: P. aeruginosa aggregate biofilms; assay: Agar block biofilm assay (ABBA), LIVE/DEAD staining and confocal microscopy; type: cell-based, Pseudomonas aeruginosa; details: 6 hr treatment; for killing of cells in aggregates at depth (SYTO 9/propidium iodide) / killing of cells in middepth aggregates (SYTO 9/propidium iodide) / killing of cells in surface aggregates (SYTO 9/propidium iodide): 40 μg/ml tobramycin, 10 mM chlorate; for viability of cells at depths of >200 μm: tobramycin compared to untreated samples
Method: Overnight aerobic cultures were diluted to an OD500 of 0.001 in molten agar growth medium that had been cooled to 44° C. For all agar block biofilm assays (ABBAs), the growth medium used was LB with 5 mM KNO3 and 0.5% noble agar. A portion of the dilution (175 p.1) was added to chambered cover glass slides (Thermo Fisher Scientific number 155409), solidified at room temperature, and incubated at 37° C. for 12 hr in a humidified chamber. After incubation, cells that were not suspended in the agar were removed by adding 400 μl PBS to the top of each agar block and gently pipetting. Liquid was removed by inversion, and the wash was repeated. Aggregate cells were then treated by pipetting 125 μl of 24 mM sodium chlorate (final concentration, 10 mM), 125 μl of 96 μg ml^−1 tobramycin (final concentration, 40 μg ml^−1), or 62.5 μl of 48 mM chlorate and 62.5 μl of 192 μg ml^−1 tobramycin in combination (10 mM and 40μg m^−1 final concentrations, respectively) on the top of the agar block. All chlorate and tobramycin solutions were made in LB, and 125 μl LB was pipetted on the top of untreated control agar blocks. Treated and untreated samples were incubated at 37° C. in a humidified chamber, with shaking at 220 rpm for 6 hr. After incubation, samples were inverted to remove liquid, and cells were stained using a BacLight LIVE/DEAD bacterial viability staining kit (Thermo Fisher Scientific number L7012). One hundred twenty-five microliters of staining solution (1 μl 3.34 mM SYTO 9, 1 μl 20 mM propidium iodide, 123 μl dH2O) was added to each sample, and samples were incubated at room temperature on a VWR variable-speed rocker at the highest speed for 90 min before being imaged.
Before being imaged, ABBA samples were inverted to remove the staining solution, and 75 μl of a 1:50 dilution of 5-μm fluorescent beads (Spherotech; CFP-5045-2) was added to each sample. Excess liquid was removed by wicking, and beads were used to mark the surface of each sample. ABBA aggregates were imaged using a Leica TCS SPE confocal microscope with an ACS APO 0.3-numeric-aperture/10× objective. The agar surface was determined by visualizing fluorescent beads using a 405-nm solid-state laser for excitation, with data collected from 425 to 475 nm. LIVE/DEAD data were collected using a 488-nm solid-state laser for excitation, with emission collected at 510 to 550 nm and 610 to 650 nm for SYTO 9 and propidium iodide, respectively. Images were collected from three distinct locations near the center of each well as 500-μm z-stacks (50 slices total, 10-μm step size). z-stacks were collected in 8-bit mode with a scan format of 512 by 512 pixels (for quantification) or 1,024 by 1,024 pixels (for representative images) and line averaging of 2. Representative images were chosen from 6 independent experiments.
To quantify ABBA staining, images were loaded in Fiji (92), and background was subtracted from each image using the rolling ball method with a radius of 100 pixels. A threshold was applied to all images to exclude pixels with a value of <20, and total pixel intensity for both stains was determined for each image using the RawIntDen value in the Integrated Density measurement function. The proportion of sensitive cells was determined for each image (at each depth) by dividing the propidium iodide integrated density by the sum of the propidium iodide- and SYTO 9-integrated densities. ABBA staining quantifications are averages from 6 independent experiments (3 technical replicates per independent experiment).
In the ABBA system, an overnight culture is diluted into 0.5% molten agar medium, allowed to solidify, and incubated overnight at 37° C. Agar-suspended cells grow as aggregates, which develop into metabolically distinct populations at different spatial scales.

[7] = Stability of concentrations in cell-free growth medium (ion chromatography); details: LB, 72 hr; 1 mM chlorate oxic, anoxic, anoxic with 40 mM nitrate; 40 mM nitrate anoxic plus 1 mM chlorate
Method: One millimolar chlorate concentrations were monitored in LB that was incubated for 72 hr under oxic conditions (filled circles), anoxic conditions (open circles), and anoxic conditions with 40 mM nitrate (open circles). Forty millimolar nitrate concentrations were monitored in LB medium that was incubated for 72 hr under anoxic conditions plus 1 mM chlorate (filled circles).
Culture samples were centrifuged at 16,000×g at room temperature for 10 min to pellet cells. Supernatants were diluted 1:10 in dH2O and added to 0.5-ml vials (Thermo Fisher Scientific catalog numbers 038010 and 038011). Nitrate and chlorate concentrations were quantified using the Dionex ICS 2000 ion chromatography system (Environmental Analysis Center, Caltech). Samples were loaded via a 15-μl sample loop onto an AS-19 separator (2- by 250-mm) column protected by an AG-19 guard (2 by 50 mm), maintained at 30° C. […] Anions were detected at neutral pH using an AERS 500 2-mm suppressor (Thermo Fisher Scientific) operated in eluent recycle mode with an applied current of 30 mA, and the conductivity detection cell was maintained at 35° C. […] Sodium chlorate and potassium nitrate standards were used to identify sample analytes via retention time and to generate standard curves for quantifying analyte concentrations.

[8] = anoxic conditions with 40 mM nitrate
[9] = anoxic conditions without nitrate

Row | Molecule | lethality (viable-cell plate counts) [1] | sensitivity of cultures (viable-cell plate counts) [1, 8] | sensitivity of cultures (viable-cell plate counts) [1, 9] | sensitivity of cultures (viable-cell plate counts) ([1]; oxic conditions) | chlorate-associated cell death ([2]; anoxic cultures with 40 mM nitrate) | chlorate-associated cell death ([2]; oxic cultures) | viable-cell counts in ΔlasR cultures lower than WT at end of experiment [3] | chlorate sensitivity (viable-cell counts) ([4]; narG mutant complemented with narGHJI genes) | chlorate sensitivity (viable-cell counts) ([4]; narG mutant) | chlorate sensitivity (percent survival) [5] | killing of cells in aggregates at depth (SYTO 9/propidium iodide) [6] | killing of cells in middepth aggregates (SYTO 9/propidium iodide) [6] | killing of cells in surface aggregates (SYTO 9/propidium iodide) [6] | viability of cells at depths of >200 μm [6] | stability of concentration in cell-free growth medium (abiotic controls) [7] | sensitivity of anoxic cultures compared with oxic cultures ([1]; 10 mM chlorite)
1 | [O-][Cl+2]([O-])O [chlorate, sodium chlorate] | indistinguishable from that in cultures lacking nitrate | does not kill; also recorded: tolerant | sensitive; also recorded: kills | does not kill | does not occur until nitrate is consumed | no chlorate-associated cell death | 100 fold | restores chlorate sensitivity | resistant | chlorate tolerant | killed | the exterior of middepth aggregates are chlorate tolerant, whereas aggregates at depth and the interior of middepth aggregates are killed | tolerant | most cells at depths of >200 μm are dead | stable | –
2 | O=[N+]([O-])[O-].[K+] [nitrate, KNO3] | – | – | – | – | – | – | – | – | – | – | – | – | – | – | stable | –
3 | NC[C@H]1O[C@H](O[C@H]2[C@H](O)[C@@H](O[C@H]3O[C@H](CO)[C@@H](O)[C@H](N)[C@H]3O)[C@H](N)C[C@@H]2N)[C@H](N)C[C@@H]1O [tobramycin, reference compound] | indistinguishable from that in cultures lacking nitrate | sensitive | tolerant | sensitive | – | – | – | – | – | – | tolerant | cells on the exterior being killed and cells on the interior staying alive | killed | increased survival | – | –
4 | sodium chlorite [reference compound] | – | – | – | – | – | – | – | – | – | – | – | – | – | – | – | much more sensitive
